From patent publication US9695155B2, “Herbicidal substituted pyrimidinyloxy benzene compounds” (E. I. DU PONT DE NEMOURS AND COMPANY, priority 2013, dated 2017)

Assays:
kochia = assay: Test E postemergence; format: in vivo, Kochia scoparia
Text: Seeds of plant species selected from corn (Zea mays), soybean (Glycine max), velvetleaf (Abutilon theophrasti), lambsquarters (Chenopodium album), wild poinsettia (Euphorbia heterophylla), palmer pigweed (Amaranthus palmeri), waterhemp (common waterhemp, Amaranthus rudis), surinam grass (Brachiaria decumbens), large (Lg) crabgrass (Digitaria sanguinalis), Brazilian crabgrass (Digitaria horizontalis), fall panicum (Panicum dichotomiflorum), giant foxtail (Setaria faberii), green foxtail (Setaria viridis), goosegrass (Eleusine indica), johnsongrass (Sorghum halepense), ragweed (common ragweed, Ambrosia elatior), barnyardgrass (Echinochloa crus-galli), sandbur (southern sandbur, Cenchrus echinatus), arrowleaf sida (Sida rhombifolia), Italian ryegrass (Lolium multiflorum), dayflower (Virginia (VA) dayflower, Commelina virginica), field bindweed (Convolvulus arvensis), morningglory (Ipomoea coccinea), nightshade (eastern black nightshade, Solanum ptycanthum), kochia (Kochia scoparia), yellow nutsedge (Cyperus esculentus), cocklebur (common cocklebur, Xanthium strumarium), smartweed (ladysthumb smartweed, and hairy beggarticks (Bidens pilosa), were planted into a silt loam soil and treated preemergence with test chemicals formulated in a non-phytotoxic solvent mixture which included a surfactant.
At the same time, plants from these crop and weed species and also horseweed (Canada horseweed, Conyza canadensis), waterhemp_RES1, (ALS & Triazine resistant common waterhemp, Amaranthus rudis), and waterhemp_RES2, (ALS & HPPD resistant common waterhemp, Amaranthus rudis) were planted in pots containing Redi-Earth® planting medium (Scotts Company, 14111 Scottslawn Road, Marysville, Ohio 43041) comprising spaghnum peat moss, vermiculite, wetting agent and starter nutrients were treated with postemergence applications of test chemicals formulated in the same manner. Plants ranged in height from 2 to 18 cm for postemergence treatments (1- to 4-leaf stage). Treated plants and controls were maintained in a greenhouse for 14 to 21 days, after which time all species were compared to controls and visually evaluated. Plant response ratings, summarized in Table E, are based on a scale of 0 to 100 where 0 is no effect and 100 is complete control. A dash (-) response means no test result.

speedwell = assay: Test D preemergence; format: in vivo, Veronica persica; details: Veronica persica, pre-emergence
Text: Seeds of plant species selected from bluegrass (annual bluegrass, Poa annua), blackgrass (Alopecurus myosuroides), canarygrass (littleseed canarygrass, Phalaris minor), chickweed (common chickweed, Stellaria media), galium (catchweed bedstraw, Galium aparine), bromegrass, downy (downy bromegrass, Bromus tectorum), field poppy (Papaver rhoeas), field violet (Viola arvensis), green foxtail (Setaria viridis), deadnettle (henbit deadnettle, Lamium amplexicaule), Italian ryegrass (Lolium multiflorum), kochia (Kochia scoparia), lambsquarters (Chenopodium album), oilseed rape (Brassica napus), pigweed (Amaranthus retroflexus), chamomile (scentless chamomile, Matricaria inodora), Russian thistle (Salsola kali), speedwell (bird's-eye speedwell, Veronica persica), spring barley (Hordeum vulgare), spring wheat (Triticum aestivum), wild buckwheat (Polygonum convolvulus), wild mustard (Sinapis arvensis), wild oat (Avena fatua), wild radish (Raphanus raphanistrum), windgrass (Apera spica-venti), winter barley (Hordeum vulgare), and winter wheat (Triticum aestivum) were planted into a silt loam soil and treated preemergence with test chemicals formulated in a non-phytotoxic solvent mixture which included a surfactant.
At the same time, these species were planted in pots containing Redi-Earth® planting medium (Scotts Company, 14111 Scottslawn Road, Marysville, Ohio 43041) comprising spaghnum peat moss, vermiculite, wetting agent and starter nutrients and treated with postemergence applications of the test chemicals formulated in the same manner. Plants ranged in height from 2 to 18 cm (1- to 4-leaf stage). Treated plants and controls were maintained in a controlled growth environment for 7 to 21 days after which time all species were compared to controls and visually evaluated. Plant response ratings, summarized in Table D, are based on a scale of 0 to 100 where 0 is no effect and 100 is complete control. A dash (-) response means no test result.

spring wheat = assay: Test D postemergence; format: in vivo, Triticum aestivum; details: Triticum aestivum, post-emergence, scale 0 to 100 (0 no effect, 100 complete control), read-out: Plant response rating, Wheat, Spring
How it was run: (§1)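 Solvent/surfactant formulations are sprayed pre (silt loam) or post (1–4 leaf plants, 2–18 cm). Plants stay 7–21 days in controlled conditions before a visual 0–100 score is given.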

winter wheat = assay: Test D postemergence; format: in vivo, Triticum aestivum; details: Triticum aestivum, post-emergence, scale 0 to 100 (0 no effect, 100 complete control), read-out: Plant response rating, Wheat, Winter
How it was run: as §1

galium = assay: Test D postemergence; format: in vivo, Galium aparine; details: Galium, post-emergence, scale 0 to 100 (0 no effect, 100 complete control), read-out: Plant response rating, Galium
How it was run: as §1

With `N#Cc1cccc(Oc2ncc(Cl)cn2)c1-n1cc(Br)cn1` [Compound 52, 2-(4-bromo-1H-pyrazol-1-yl)-3-[(5-chloro-2-pyrimidinyl)oxy]benzonitrile] the “Plant response rating, Kochia” value (kochia; Postemergence, 31 g ai/ha, scale 0 to 100) was 50, the “Plant response rating, Kochia” value (kochia; Postemergence, 62 g ai/ha, scale 0 to 100) was 55 and the “Plant response rating, Kochia” value (kochia; Postemergence, 125 g ai/ha, scale 0 to 100) was 80. For the same molecule, the “Plant response rating, Kochia” value (kochia; postemergence, 16 g ai/ha, scale 0 to 100, 0 no effect, 100 complete control) was 40, the pest or weed control at 31 g/ha (speedwell; 31 g ai/ha, scale 0 (no effect) to 100 (complete control), read-out: Plant response rating, Speedwell) was 100% and the pest or weed control at 62 g/ha (speedwell; 62 g ai/ha, scale 0-100, read-out: Plant response rating, Speedwell) was 100%. For the same molecule, the pest or weed control at 125 g/ha (speedwell; 125 g ai/ha, scale 0-100, read-out: Plant response rating, Speedwell) was 100%, the pest or weed control at 250 g/ha (speedwell; 250 g ai/ha, scale 0-100, read-out: Plant response rating, Speedwell) was 100% and the plant injury at 31 g/ha (spring wheat; 31 g ai/ha) was 5%. It also gave a plant injury at 62 g/ha (spring wheat; 62 g ai/ha) of 10%, a plant injury at 125 g/ha (spring wheat; 125 g ai/ha) of 10% and a plant injury at 250 g/ha (spring wheat; 250 g ai/ha) of 15%. The plant injury at 31 g/ha (winter wheat; 31 g ai/ha) was 10%, the plant injury at 62 g/ha (winter wheat; 62 g ai/ha) was 15% and the plant injury at 125 g/ha (winter wheat; 125 g ai/ha) was 20%. The plant injury at 250 g/ha (winter wheat; 250 g ai/ha) was 25%, the pest or weed control at 31 g/ha (galium; 31 g ai/ha) was 70% and the pest or weed control at 62 g/ha (galium; 62 g ai/ha) was 80%. The pest or weed control at 125 g/ha (galium; 125 g ai/ha) was 95% and the pest or weed control at 250 g/ha (galium; 250 g ai/ha) was 100%.
